# How the values were obtained:
# [1] = system: Jurkat T cells; test: TUNEL apoptosis assay, sequential exposure to dCF then dAd (Example 21); type: cell-based; conditions: no dCF (0 uM)
# Method: (§1) Thus, it is hypothesized that the sequential exposure of the cells to dCF, followed by deoxyadenosine (dAd) will lead to greater levels of apoptosis than dCF alone. […] The cells were then incubated in dAd for 2 more days. At the end of the treatment period, the cells were harvested for analysis by a TUNEL assay, a flow-cytometry-based method to quantify the percentage of cells that have undergone apoptosis. The level of apoptosis is expressed as “% FITC shift”. As a positive control, the cells were exposed to 5 mM camptothecin for 2 days.
# [2] = system: U937 monocytoid cells; test: as above; type: cell-based; conditions: no dCF (0 uM)
# Method: as §1
# [3] = system: U937 monocytoid cells; test: TUNEL assay, simultaneous exposure to dCF and dAd (Example 22); type: cell-based
# Method: Methods Simultaneous Exposure—U937 monocytoid cells were cultured in the presence of 0, 1, 2.5, 10, 20, 50, 100, 150, 200, and 250 μM dAdo for 2 days. […] At the end of the treatment period, the cells were harvested for analysis by a TUNEL assay, a flow-cytometry-based method to quantify the percentage of cells that have undergone apoptosis. The level of apoptosis is expressed as “% FITC shift”. As a positive control, the cells were exposed to 5 mM camptothecin for 2 days.
# [4] = system: U937 monocytoid cells; test: TUNEL assay, dAd added at different times after dCF wash-out (Example 22); type: cell-based; conditions: dCF 0 μM 2 days, wash, 2 more days
# Method: At 0, 6, 24, and 48 hours, 50 μM dAd was added and the cells were incubated for an additional 2 days. At the end of the treatment period, the cells were harvested for analysis by a TUNEL assay, a flow-cytometry-based method to quantify the percentage of cells that have undergone apoptosis. The level of apoptosis is expressed as “% FITC shift”. As a positive control, the cells were exposed to 5 mM camptothecin for 2 days.
# [5] = system: U937 monocytoid cells; test: TUNEL assay, dAd, adenosine and adenine dose ranging (Example 24); type: cell-based; conditions: 2 days, no dCF
# Method: U937 monocytoid cells were cultured in the presence of dAd at various concentrations of dAd (0, 50, 75, 100, 250 and 1000 micromoles/liter). The cells were incubated in dAd for 2 days. At the end of the treatment period, the cells were harvested for analysis by a TUNEL assay, a flow-cytometry-based method to quantify the percentage of cells that have undergone apoptosis. The level of apoptosis expressed as “% FITC shift”. The level of cell cycle arrest is expressed as “% PI shift”. As a positive control, the cells were exposed to 5 mM camptothecin for 2 days.
# [6] = system: Jurkat cells; test: Cytokine secretion by ELISA (Example 31); type: cell-based; conditions: for Cytokine Secretion IL-2 pg/ml Mean of 3 Replicates: PHA-activated cells
# Method: In a search for a topical agent that can locally deplete levels of T-cells in the skin, apoptotic compounds were evaluated for their mechanisms of action. The ability that […] induce apoptosis by the same mechanisms was examined by cytokine secretion. […] At the end of the treatment period, the cells were harvested and Caspase-3 induction was determined using a flow-cytometry-based method to quantify the percentage of cells that induced Caspase-3. The level of apoptosis is expressed as “% FITC shift”. Cytokine secretion (IL-2, IL-6, TNF, and IFN-γ) was measured at the same time by ELISA and is expressed in pg/mL.
# [7] = system: U-937 cells; test: Toxicity to U-937 cells (summary in Example 29); type: cell-based
# [8] = system: monocytes and lymphocytes; test: Toxicity of dAdo to monocytes and lymphocytes; type: cell-based
# [9] = system: lymphocytes; conditions: cited from earlier work
# [10] = Calculated concentration in the skin assuming 7% penetration
# [11] = dAd 10 μM alone (dCF 0), 2 days
# [12] = dAd 20 μM alone (dCF 0), 2 days
# [13] = dAd 50 μM alone (dCF 0), 2 days
# [14] = dAd 100 μM alone (dCF 0), 2 days
# [15] = dAd 150 μM alone (dCF 0), 2 days
# [16] = dAd 200 μM alone (dCF 0), 2 days
# [17] = dAd 250 μM alone (dCF 0), 2 days
# [18] = drug 50 uM, listed as dAd (Acros)
# [19] = drug 50 uM, listed as dAd (Sigma)
# [20] = drug 100 uM, listed as dAd (Acros)
# [21] = drug 100 uM, listed as dAd (Sigma)
# [22] = drug 250 uM, listed as dAd (Acros)
# [23] = drug 250 uM, listed as dAd (Sigma)
# [24] = drug 1000 uM, listed as dAd (Acros)
# [25] = drug 1000 uM, listed as dAd (Sigma)
structure (smiles),measurement,setting,value
"Nc1ncnc2c1ncn2[C@H]1C[C@H](O)[C@@H](CO)O1 [dAd, 2′-deoxyadenosine]",% FITC Shift,[1]; dAd 10 uM 2 days,1.6%
same,% FITC Shift,[1]; dAd 50 uM 2 days,4.2%
same,% FITC Shift,[1]; dAd 250 uM 2 days,22.2%
same,% FITC Shift,[2]; dAd 10 uM 2 days,1.8%
same,% FITC Shift,[2]; dAd 50 uM 2 days,2.6%
same,% FITC Shift,[2]; dAd 250 uM 2 days,92%
same,concentration at which dAd itself induces apoptosis,"[3]; U937 cells, no dCF",100 to 200 µM
same,concentrations at which dAd alone is toxic,"[3]; absence of dCF, 2 days",> 100 µM
same,% FITC Shift,"[3]; dAd 1 μM alone (dCF 0), 2 days",1.2%
same,% PI Shift,"[3]; dAd 1 μM alone (dCF 0), 2 days",1.1%
same,% FITC Shift,[3]; [11],1.8%
same,% PI Shift,[3]; [11],1.5%
same,% FITC Shift,[3]; [12],1.7%
same,% PI Shift,[3]; [12],1.8%
same,% FITC Shift,[3]; [13],1.5%
same,% PI Shift,[3]; [13],3.8%
same,% FITC Shift,[3]; [14],33.7%
same,% PI Shift,[3]; [14],15.9%
same,% FITC Shift,[3]; [15],78.3%
same,% PI Shift,[3]; [15],17.3%
same,% FITC Shift,[3]; [16],62.6%
same,% PI Shift,[3]; [16],19.7%
same,% FITC Shift,[3]; [17],66.4%
same,% PI Shift,[3]; [17],17.8%
same,% FITC Shift,[4]; 50 μM dAd added 0 hr after wash-out,1.6%
same,% FITC Shift,[4]; 50 μM dAd added 6 hr after wash-out,2.2%
same,% FITC Shift,[4]; 50 μM dAd added 24 hr after wash-out,2.2%
same,% FITC Shift,[4]; 50 μM dAd added 48 hr after wash-out,1.0%
same,concentration at which cell cycle arrest begins,[5],75 µM
same,concentration at which apoptosis is induced,[5]; progressively more at 250 and 1000,100 µM
same,% FITC Shift,[5]; [18],0.7%
same,% PI Shift,[5]; [18],2.9%
same,% FITC Shift,[5]; [19],1.5%
same,% PI Shift,[5]; [19],3.2%
same,% FITC Shift,[5]; drug 75 uM,1.8%
same,% PI Shift,"[5]; drug 75 uM, listed as dAd (Acros)",7.1%
same,% PI Shift,"[5]; drug 75 uM, listed as dAd (Sigma)",8.8%
same,% FITC Shift,[5]; [20],3.5%
same,% PI Shift,[5]; [20],9.8%
same,% FITC Shift,[5]; [21],9.0%
same,% PI Shift,[5]; [21],12.1%
same,% FITC Shift,[5]; [22],54.1%
same,% PI Shift,[5]; [22],14.6%
same,% FITC Shift,[5]; [23],65.8%
same,% PI Shift,[5]; [23],12.0%
same,% FITC Shift,[5]; [24],80.2%
same,% PI Shift,[5]; [24],32.6%
same,% FITC Shift,[5]; [25],79.2%
same,% PI Shift,[5]; [25],29.5%
same,Cytokine Secretion IL-2 pg/ml Mean of 3 Replicates,"[6]; 23 hr, drug 500 μM",17 pg/mL
same,IL-2 inhibition,"[6]; 46 hours, compared to no drug+PHA",61%
same,Cytokine Secretion IL-2 pg/ml Mean of 3 Replicates,"[6]; 46 hr, drug 500 μM",49 pg/mL
same,IL-2 concentration,"[6]; Jurkat cells activated by PHA, 46 hours, drug 500 μM",49 pg/mL
same,concentration toxic to U-937 cells on its own,[7],250 µM
same,concentrations toxic to monocytes and lymphocytes,[8],greater than 100 μM
same,potentiation of the growth inhibitory effect of dCF,[9],"up to 1,000 fold"
same,Concentration in the skin assuming 7% penetration,[10]; topical concentration 0.00005%,0.14 µM
same,Concentration in the skin assuming 7% penetration,[10]; topical concentration 0.0005%,1.39 µM
same,Concentration in the skin assuming 7% penetration,[10]; topical concentration 0.005%,13.93 µM
same,Concentration in the skin assuming 7% penetration,[10]; topical concentration 0.01%,27.86 µM
same,Concentration in the skin assuming 7% penetration,[10]; topical concentration 0.05%,139.31 µM
same,Concentration in the skin assuming 7% penetration,[10]; topical concentration 0.1%,278.62 µM
same,Concentration in the skin assuming 7% penetration,[10]; topical concentration 0.5%,1393.09 µM
same,Concentration in the skin assuming 7% penetration,[10]; topical concentration 1%,2786.18 µM
same,Concentration in the skin assuming 7% penetration,[10]; topical concentration 3%,8358.54 µM
same,Concentration in the skin assuming 7% penetration,[10]; topical concentration 5%,13930.90 µM

# Reference: patent US20070142317A1, “Topical composition for treatment of skin disorders” (QLT USA, Inc., priority 2003, published 2007)
